Read-outs that look alike come from different tables or passages of the source.
Key:
G. lamblia GS = test: Trophozoite viability IC50 determination, Giardia assay (ATPLite); type: cell-based; settings: read-out: Cell viability values Mean IC50 (nM) G. lamblia GS
Method: (§1) Giardia cultures: Trophozoites of G. lamblia isolates WB and GS were grown anaerobically in borosilicate glass screw-cap culture tubes (Fisher Scientific) at pH 7.0 in modified TYI-S-33 medium. The medium was supplemented with 10% heat-inactivated bovine serum (Sigma-Aldrich) and 0.05% bovine bile (Sigma-Aldrich). To attain low-oxygen-tension conditions, the tubes were filled to 85 to 90% of their total volume capacity and incubated without shaking at 37° C. Subcultures (2×10^5 trophozoites per tube) were made three times a week. Detachment of trophozoites for inoculation was achieved by chilling the cultures on ice for 20 min. Culturing and detachment of Metronidazole-resistant G. lamblia Assemblage A 713M3 and assemblage B 1279-M1 trophozoites followed the same protocol, except that the growth medium was supplemented with metronidazole gradually increasing the concentration to 10 μM. Amebae cultures: E. histolytica strain HM1:IMSS trophozoites were grown at 37° C. in TYI-S-33 medium supplemented with penicillin (100 U/mL) and streptomycin sulfate (100 μg/mL). Trophozoites were grown anaerobically in borosilicate tubes and subcultures were made 1-2 times a week. Trophozoites were detached for inoculation by chilling the cultures on ice for 20 minutes.
(§2) Trophozoite viability IC50determination
(§3) Giardia assays: 10 μL giardia trophozoites in growth medium were plated at a density of 10,000 cells/well in sterile 96-well black clear bottom assay plates. Fumagillin and fumagillol derivatives were 1:3 serially diluted from a 1 μM DMSO stock solution and then 100 μL/well were transferred in duplicate to the assay wells. Metronidazole (control) was 1:3 serially diluted in growth medium from a 100 μM stock solution in DMSO. The assay plates were placed in a BD GasPak™ EZ Container System (BD Diagnostics) to create an anaerobic growth environment. The sealed containers were incubated at 37° C. for 72 hr. Following incubation, 70 μL/well of the ATPLite reagent (PerkinElmer) was added to the assay plates for one-step lysis and ATP level detection. The luminescent signals of the assay plates were measured on an EnSpire 2300 plate reader (PerkinElmer). Concentration response titration points for each compound were fitted to a 4-parameters logistic nonlinear regression model using KaleidaGraph, yielding the IC50value and standard error (SE).

G. lamblia WB = test: as above; type: cell-based; settings: Giardia duodenalis, read-out: Cell viability values Mean IC50 (nM) G. lamblia WB
Method: as §1, §2, §3

E. histolytica HM1: IMSS = test: Trophozoite viability IC50 determination, Amebae assay (ATPLite); type: cell-based; settings: Entamoeba histolytica, read-out: Cell viability values Mean IC50 (nM) E. histolytica HM1: IMSS
Method: as §1, §2, §3
Amebae assays: The protocol is identical to that described above except that the trophozoites were plated at a density of 5000 cells/well because of their larger size.

Recombinant human MetAP2 = target: T1, Recombinant human MetAP2 (Homo sapiens, UniProt P50579); test: MetAP2 fluorescence assay; type: biochemical; settings: recombinant human MetAP2, H-Met-Gly-Pro-AMC substrate
T1 construct: purchased Bio-Techne/R&D systems
Method: MetAP2 Fluorescence Assay
Recombinant human MetAP2 (Bio-Techne/R&D systems) was diluted to 10 μg/mL in the assay buffer (50 mM HEPES, 0.1 mM CoCl2, 100 mM NaCl, pH 7.5). The substrate, H-Met-Gly-Pro-AMC (Bio-Techne/R&D systems), was diluted to 500 μM with 2 μg/mL of the coupling enzyme, recombinant human dipeptidyl peptidase-4 (Bio-Techne/R&D systems), in assay buffer. 50 μL of 10 μg/mL recombinant human METAP2 were loaded into a flat-bottom black 96-well plate (Greiner Bio), and the reaction was initiated by adding 50 μL of the substrate/dipeptidyl peptidase-4 mixture. The reaction mixture was incubated at room temperature for 10 minutes, and the fluorescence was measured for 5 minutes at excitation and emission wavelengths of 380 nm and 460 nm, respectively, in kinetic mode. For IC50determination, 0.5 μL inhibitor solution was added to the reaction mixture. The reaction rates were used to calculate IC50with KaleidaGraph.

[1] = Giardia duodenalis, trophozoites, 72 hr, anaerobic, ATP level
[2] = trophozoites, 72 hr, anaerobic, ATP level

T1 sequence (P50579 whole entry): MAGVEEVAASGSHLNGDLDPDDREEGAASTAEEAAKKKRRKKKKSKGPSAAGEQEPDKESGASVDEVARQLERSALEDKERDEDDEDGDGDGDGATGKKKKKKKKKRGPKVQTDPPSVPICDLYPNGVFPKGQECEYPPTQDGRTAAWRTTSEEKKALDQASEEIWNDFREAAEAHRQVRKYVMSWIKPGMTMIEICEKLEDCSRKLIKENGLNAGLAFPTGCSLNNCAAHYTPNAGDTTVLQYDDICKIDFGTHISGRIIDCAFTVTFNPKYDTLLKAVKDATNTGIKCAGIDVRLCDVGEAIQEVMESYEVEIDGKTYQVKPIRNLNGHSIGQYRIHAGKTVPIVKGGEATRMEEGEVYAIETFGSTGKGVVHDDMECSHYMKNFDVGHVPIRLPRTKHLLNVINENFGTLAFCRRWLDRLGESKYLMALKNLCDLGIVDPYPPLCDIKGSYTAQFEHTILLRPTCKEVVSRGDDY

Structure (SMILES) | IC50 (G. lamblia GS; [1]) | IC50 (G. lamblia WB; [2]) | IC50 (E. histolytica HM1: IMSS; [2]) | IC50 (Recombinant human MetAP2) | IC50 (G. lamblia GS; Giardia duodenalis, 72 h) | IC50 (G. lamblia WB; 72 h) | IC50 (E. histolytica HM1: IMSS; 72 h) | IC50 (G. lamblia GS; [2])
CO[C@@H]1[C@H](OC(=O)Nc2ccc3c(c2)COB3O)CC[C@]2(CO2)[C@H]1[C@@]1(C)O[C@@H]1CC=C(C)C [No 1, (3R,4S,5S,6R)-5-methoxy-4-((2R,3R)-2-methyl-3-(3-methylbut-2-en-1-yl)oxiran-2-yl)-1-oxaspiro[2.5]octan-6-yl (1-hydroxy-1,3-dihydrobenzo[c][1,2]oxaborol-5-yl)carbamate] | < 10 nM | < 10 nM | < 10 nM | – | – | – | – | –
CO[C@@H]1[C@H](OC(=O)Nc2ccc3c(c2)C(C)OB3O)CC[C@]2(CO2)[C@H]1[C@@]1(C)O[C@@H]1CC=C(C)C (stereo partly shown) [No 2] | < 10 nM | < 10 nM | < 10 nM | < 0.01 µM | – | – | – | –
CO[C@@H]1[C@H](OC(=O)Nc2ccc3c(c2)C(C)(C)OB3O)CC[C@]2(CO2)[C@H]1[C@@]1(C)O[C@@H]1CC=C(C)C [No 3] | – | – | – | < 0.01 µM | < 10 nM | < 10 nM | < 10 nM | –
CO[C@@H]1[C@H](OC(=O)Nc2cc3c(cc2F)B(O)OC3(C)C)CC[C@]2(CO2)[C@H]1[C@@]1(C)O[C@@H]1CC=C(C)C [No 4] | – | – | – | < 0.01 µM | – | – | – | < 10 nM
CO[C@@H]1[C@H](OC(=O)N(C)c2ccc3c(c2)COB3O)CC[C@]2(CO2)[C@H]1[C@@]1(C)O[C@@H]1CC=C(C)C [No 5] | – | – | – | < 0.01 µM | – | – | – | –
CO[C@@H]1[C@H](OC(=O)Nc2ccc3c(c2)B(O)OC3)CC[C@]2(CO2)[C@H]1[C@@]1(C)O[C@@H]1CC=C(C)C [No 6] | – | – | – | < 0.01 µM | < 10 nM | 10.1 to 100 nM | 10.1 to 100 nM | –
CO[C@@H]1[C@H](OC(=O)Nc2ccc3c(c2)B(O)OC3C)CC[C@]2(CO2)[C@H]1[C@@]1(C)O[C@@H]1CC=C(C)C (stereo partly shown) [No 7] | – | – | – | < 0.01 µM | – | – | – | < 10 nM
CO[C@@H]1[C@H](OC(=O)Nc2cc(F)c3c(c2)B(O)OC3)CC[C@]2(CO2)[C@H]1[C@@]1(C)O[C@@H]1CC=C(C)C [No 8] | – | – | – | < 0.01 µM | – | – | – | < 10 nM
CO[C@@H]1[C@H](OC(=O)Nc2cc(Cl)c3c(c2)B(O)OC3)CC[C@]2(CO2)[C@H]1[C@@]1(C)O[C@@H]1CC=C(C)C [No 10] | – | – | – | < 0.01 µM | 10.1 to 100 nM | 10.1 to 100 nM | 10.1 to 100 nM | –
CO[C@@H]1[C@H](OC(=O)Nc2cccc3c2COB3O)CC[C@]2(CO2)[C@H]1[C@@]1(C)O[C@@H]1CC=C(C)C [No 12] | – | – | – | < 0.01 µM | 10.1 to 100 nM | 101 to 1000 nM | 101 to 1000 nM | –
CO[C@@H]1[C@H](OC(=O)Nc2ccc3c(c2)CCOB3O)CC[C@]2(CO2)[C@H]1[C@@]1(C)O[C@@H]1CC=C(C)C [No 13] | – | – | – | < 0.01 µM | < 10 nM | 10.1 to 100 nM | 101 to 1000 nM | –
CO[C@@H]1[C@H](OC(=O)Nc2ccc3c(c2)B(O)OCC3)CC[C@]2(CO2)[C@H]1[C@@]1(C)O[C@@H]1CC=C(C)C [No 14] | – | – | – | < 0.01 µM | 10.1 to 100 nM | 101 to 1000 nM | 101 to 1000 nM | –
CO[C@@H]1[C@H](OC(=O)N(C)c2ccc3c(c2)CCOB3O)CC[C@]2(CO2)[C@H]1[C@@]1(C)O[C@@H]1CC=C(C)C [No 15] | – | – | – | < 0.01 µM | 101 to 1000 nM | 101 to 1000 nM | 101 to 1000 nM | –
CO[C@@H]1[C@H](OC(=O)N(C)c2ccc3c(c2)B(O)OCC3)CC[C@]2(CO2)[C@H]1[C@@]1(C)O[C@@H]1CC=C(C)C [No 16] | 101 to 1000 nM | 101 to 1000 nM | 101 to 1000 nM | < 0.01 µM | – | – | – | –
CO[C@@H]1[C@H](OC(=O)Nc2ccc(B(O)O)cc2)CC[C@]2(CO2)[C@H]1[C@@]1(C)O[C@@H]1CC=C(C)C [No 17] | < 10 nM | 10.1 to 100 nM | 10.1 to 100 nM | < 0.01 µM | – | – | – | –
CO[C@@H]1[C@H](OC(=O)Nc2cccc(B(O)O)c2)CC[C@]2(CO2)[C@H]1[C@@]1(C)O[C@@H]1CC=C(C)C [No 18] | – | – | – | < 0.01 µM | 10.1 to 100 nM | 101 to 1000 nM | 101 to 1000 nM | –
CO[C@@H]1[C@H](OC(=O)Nc2ccccc2B(O)O)CC[C@]2(CO2)[C@H]1[C@@]1(C)O[C@@H]1CC=C(C)C [No 19] | – | – | – | < 0.01 µM | 10.1 to 100 nM | 101 to 1000 nM | 101 to 1000 nM | –
COC(=O)c1ccc(B(O)O)c(NC(=O)OC2CCC3(CO3)C(C3(C)OC3CC=C(C)C)C2OC)c1 (stereo not shown) [No 26] | – | – | – | – | 101 to 1000 nM | > 1000 nM | > 1000 nM | –
COC(=O)c1cc(NC(=O)OC2CCC3(CO3)C(C3(C)OC3CC=C(C)C)C2OC)cc(B(O)O)c1 (stereo not shown) [No 27] | – | – | – | – | 101 to 1000 nM | 101 to 1000 nM | 101 to 1000 nM | –
COC1C(OC(=O)NCc2ccc(F)cc2B(O)O)CCC2(CO2)C1C1(C)OC1CC=C(C)C (stereo not shown) [No 32] | – | – | – | – | 101 to 1000 nM | > 1000 nM | > 1000 nM | –
COC1C(OC(=O)NCc2cc(C#N)cc(B(O)O)c2)CCC2(CO2)C1C1(C)OC1CC=C(C)C (stereo not shown) [No 36] | – | – | – | – | 101 to 1000 nM | > 1000 nM | > 1000 nM | –
CO[C@@H]1[C@H](OC(=O)NCCc2ccccc2B(O)O)CC[C@]2(CO2)[C@H]1[C@@]1(C)O[C@@H]1CC=C(C)C [No 39] | – | – | – | < 0.01 µM | 101 to 1000 nM | > 1000 nM | – | –
COC1C(OC(=O)NCc2cncc(B(O)O)c2)CCC2(CO2)C1C1(C)OC1CC=C(C)C (stereo not shown) [No 42] | – | – | – | – | 101 to 1000 nM | > 1000 nM | > 1000 nM | –
COC1C(OC(=O)N2CCC(n3cc(B(O)O)cn3)CC2)CCC2(CO2)C1C1(C)OC1CC=C(C)C (stereo not shown) [No 46] | – | – | – | – | 101 to 1000 nM | > 1000 nM | > 1000 nM | –
COC1C(OC(=O)N2CC(B(O)O)Cn3ccnc32)CCC2(CO2)C1C1(C)OC1CC=C(C)C (stereo not shown) [No 56] | – | – | – | – | 101 to 1000 nM | > 1000 nM | > 1000 nM | –
COc1nsc(CNC(=O)OC2CCC3(CO3)C(C3(C)OC3CC=C(C)C)C2OC)c1B(O)O (stereo not shown) [No 57] | – | – | – | – | 101 to 1000 nM | > 1000 nM | > 1000 nM | –
COC1C(OC(=O)NCCn2cc(B(O)O)cn2)CCC2(CO2)C1C1(C)OC1CC=C(C)C (stereo not shown) [No 61] | – | – | – | – | 101 to 1000 nM | > 1000 nM | > 1000 nM | –
COC1C(OC(=O)N2CCOc3c(B(O)O)cncc32)CCC2(CO2)C1C1(C)OC1CC=C(C)C (stereo not shown) [No 66] | – | – | – | – | 101 to 1000 nM | > 1000 nM | > 1000 nM | –
